For test [1], the target named is protein-protein interaction between Kras and SOS1 (biotin-tagged human Kras loaded with GDP, His-tagged human SOS1) (Homo sapiens (Human), UniProt P01116, G12D). As to the kind of experiment: Protein-protein interaction inhibition between Kras and SOS1 (KrasG12D-SOS PPI) using AlphaScreen.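 Note: kras produced in E. coli, Ni-coupled donor beads and streptavidin acceptor beads, excitation 680 nm with emission detected at 520–620 nm via singlet oxygen transfer.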 As to conditions: AlphaScreen; biotin-tagged human Kras loaded with GDP, His-tagged human SOS1; read-out: KRAS G12D-SOS PPI IC50. It is filed as biochemical.

Test [2] concerns Human pancreatic cancer cell line AsPC-1 (G12D mutation Kras). As to the kind of experiment: AsPC-1 cell growth inhibition (AsPC-1 CGI). It is filed as cell-based. As to conditions: read-out: AsPC-1 cell growth inhibition, 50% growth inhibitory concentration (IC50 value); 96 hours, CellTiter-Glo, values classified in ranges. (In ATP-based viability assays light output follows the ATP content of the culture.)
Protocol: Test compounds were serially dilated with dimethyl sulfoxide, and 200 nL was then dispensed to a U-bottom 96-well plate using Labcyte Echo. […] The cell suspension was dispensed to a. plate containing a test compound at 100 μL per well and incubated at 37° C. in a 5% carbon dioxide gas incubator. 96 hours later, 80 μL of CellTiter-Glo (Promega) was added to each well and fluorescence was measured.

Each structure is given as a SMILES string. Numbered stars: 1 amine (or outer) side, 2 acyl side, 3 side chain; on linkers, the order of the positions; unused ones are H or OH. Bridge positions count the residues as written; N and C are the ends. Square brackets hold non-standard residues; d marks the D form. Peptide text beside a SMILES is read from it. * marks the point of attachment. hPhe(3-Cl-4-CF3) = N[C@@H](CCc1ccc(C(F)(F)F)c(Cl)c1)C(=O)O; hPhe(3-F,4-CF3) = N[C@@H](CCc1ccc(C(F)(F)F)c(F)c1)C(=O)O; NMePhe(4-Cl) = CN[C@@H](Cc1ccc(Cl)cc1)C(=O)O; NMePhe(4-Me) = CN[C@@H](Cc1ccc(C)cc1)C(=O)O; NMedβ3hAla = C[C@H](CC(=O)[*:2])N(C)[*:1]; NMeCha = CN[C@@H](CC1CCCCC1)C(=O)O; Hyp = O=C(O)[C@@H]1C[C@@H](O)CN1; NMeChg = CN[C@H](C(=O)O)C1CCCCC1; NMeI = CC[C@H](C)[C@H](NC)C(=O)O; NMeD = CN[C@@H](CC(=O)O)C(=O)O; NMeL = CN[C@@H](CC(C)C)C(=O)O; NMeNva = CCC[C@H](NC)C(=O)O; NMeV = CN[C@H](C(=O)O)C(C)C; Trifluoroethyl = FC(F)(F)C*; NMeA = CN[C@@H](C)C(=O)O; NMeAib = CNC(C)(C)C(=O)O; Piperidide = C1CCN(*)CC1; Pyrrolidide = C1CCN(*)C1; Ac5c = NC1(C(=O)O)CCCC1; Aze = O=C(O)[C@@H]1CCN1; Sar = CNCC(=O)O

For `CC[C@H](C)[C@@H]1NC(=O)[C@H](CC(C)C)N(C)C(=O)C[C@@H](C(=O)N(C)C)N(C)C(=O)[C@H]([C@@H](C)CC)N(C)C(=O)C2(CCCC2)NC(=O)[C@@H]2CCCN2C(=O)[C@H](CCc2ccc(C(F)(F)F)c(Cl)c2)NC(=O)CN(C)C(=O)[C@H](Cc2ccc(C)cc2)N(C)C(=O)[C@@H]2CCN2C(=O)[C@H](C)N(C)C1=O` [Compound 1842] ([NMeL]I[NMeA][Aze][NMePhe(4-Me)][Sar][hPhe(3-Cl-4-CF3)]P[Ac5c][NMeI][NMeD]-NMe2; lactam N-11), the IC50 is 0.00066 µM in test [1] and not above 0.02 µM in test [2].
In the case of `CCC[C@H]1C(=O)N[C@@H]([C@@H](C)CC)C(=O)N(C)CC(=O)N(C)CC(=O)N(C)[C@@H](Cc2ccc(C)cc2)C(=O)N(C)CC(=O)N[C@@H](CCc2ccc(C(F)(F)F)c(Cl)c2)C(=O)N2C[C@H](OCC)C[C@H]2C(=O)NC2(CCCC2)C(=O)N(C)[C@@H](C2CCCCC2)C(=O)N(C)[C@H](C(=O)N2CCCC2)CC(=O)N1C` [Compound 1285] ([NMeNva]I[Sar][Sar][NMePhe(4-Me)][Sar][hPhe(3-Cl-4-CF3)][Hyp](Et)[Ac5c][NMeChg][NMeD]-Pyrrolidide; lactam N-11), the IC50 was 0.00053 µM in test [1] and not above 0.02 µM in test [2].
The corresponding values for `CC[C@H](C)[C@@H]1NC(=O)[C@H](C)N(C)C(=O)C[C@@H](C(=O)N2CCCCC2)N(C)C(=O)[C@H](C(C)C)N(C)C(=O)C2(CCCC2)NC(=O)[C@@H]2CCCN2C(=O)[C@H](CCc2ccc(C(F)(F)F)c(F)c2)NC(=O)CN(C)C(=O)[C@H](CC2CCCCC2)N(C)C(=O)[C@@H]2CCN2C(=O)[C@H](C)N(C)C1=O` [Compound 1024] ([NMeA]I[NMeA][Aze][NMeCha][Sar][hPhe(3-F,4-CF3)]P[Ac5c][NMeV][NMeD]-Piperidide; lactam N-11) are 0.0019 µM and more than 0.5 µM.
In the case of `CC(C)C[C@H]1C(=O)N[C@@H](COCC(F)(F)F)C(=O)N(C)[C@@H](C)C(=O)N2CC[C@H]2C(=O)N(C)[C@@H](CC2CCCCC2)C(=O)N(C)CC(=O)N[C@@H](CCc2ccc(C(F)(F)F)c(Cl)c2)C(=O)N2CCC[C@H]2C(=O)NC2(CCCC2)C(=O)N(C)[C@@H](C(C)C)C(=O)N(C)[C@H](C(=O)N2CCCCC2)CC(=O)N1C` [Compound 304] ([NMeL]S(Trifluoroethyl)[NMeA][Aze][NMeCha][Sar][hPhe(3-Cl-4-CF3)]P[Ac5c][NMeV][NMeD]-Piperidide; lactam N-11), the IC50 in test [1] was 0.087 µM; in test [2] it was more than 0.5 µM.
As for `CC(C)C[C@H]1C(=O)N[C@@H]([C@@H](C)O)C(=O)N(C)[C@@H](C)C(=O)N2CC[C@H]2C(=O)N(C)[C@@H](CC2CCCCC2)C(=O)N(C)CC(=O)N[C@@H](CCc2ccc(C(F)(F)F)c(Cl)c2)C(=O)N2CCC[C@H]2C(=O)NC2(CCCC2)C(=O)N(C)[C@@H](C(C)C)C(=O)N(C)[C@H](C(=O)N2CCCCC2)CC(=O)N1C` [Compound 450] ([NMeL]T[NMeA][Aze][NMeCha][Sar][hPhe(3-Cl-4-CF3)]P[Ac5c][NMeV][NMeD]-Piperidide; lactam N-11), the IC50 in test [1] was 0.0066 µM; in test [2] it was more than 0.5 µM.
Take `CC[C@H](C)[C@@H]1NC(=O)[C@H](CC(C)C)N(C)C(=O)C[C@@H](C)N(C)C(=O)[C@H](CC(C)C)NC(=O)C(C)(C)N(C)C(=O)[C@H]([C@@H](C)CC)NC(=O)[C@H](CCc2ccc(C(F)(F)F)c(F)c2)NC(=O)CN(C)C(=O)[C@H](Cc2ccc(Cl)cc2)N(C)C(=O)CN(C)C(=O)CN(C)C1=O` [Compound 332] (cyclo(I[NMeAib]L[NMedβ3hAla][NMeL]I[Sar][Sar][NMePhe(4-Cl)][Sar][hPhe(3-F,4-CF3)])): the IC50 in test [1] was 0.21 µM; in test [2] it was more than 0.5 µM.

Values taken from US20240148821A1, “PHARMACEUTICAL USE OF CYCLIC PEPTIDE COMPOUND” (CHUGAI SEIYAKU KABUSHIKI KAISHA, priority 2021, published 2024).
